Experimental findings from US8263606B2 (Xenon Pharmaceuticals Inc., priority 2008, dated 2012) are described below.

One data set addresses CYP3A4 (Homo sapiens, UniProt P08684). As to the kind of experiment: Cytochrome P450 (CYP450) Inhibition Assay, CYP3A4 (Vivid fluorescence, BOMCC substrate). The settings on record: for inhibition at 10 µM: human, P450 Baculosomes (recombinant CYP3A4), probe BOMCC (Vivid substrate).
In another data set the test system is sodium channel. Description: Guanidine influx assay (14C-guanidine radiotracer flux, in vitro). Format: cell-based, human or rat. As to conditions: guanidine influx assay using a known cell line that expresses a sodium channel; activity level class. An excerpt: This example describes an in vitro assay for testing and profiling test agents against human or rat sodium channels stably expressed in cells of either an endogenous or recombinant origin. The assay is also useful for determining the IC50 of a sodium channel blocking compound. The assay is based on the guanidine flux assay described by Reddy, N. L., et al., J. Med. Chem. (1998), 41(17):3298-302.
The guanidine influx assay is a radiotracer flux assay used to determine ion flux activity of sodium channels in a high-throughput microplate-based format. The assay uses ^14C-guanidine hydrochloride in combination with various known sodium channel modulators, to assay the potency of test agents. Potency is determined by an IC50 calculation. Selectivity is determined by comparing potency of the compound for the channel of interest to its potency against other sodium channels (also called ‘selectivity profiling’).
Each of the test agents is assayed against cells that express the channels of interest. Voltage gated sodium channels are either TTX sensitive or insensitive. This property is useful when evaluating the activities of a channel of interest when it resides in a mixed population with other sodium channels. The following Table 1 summarizes cell lines useful in screening for a certain channel activity in the presence or absence of TTX.
It is also possible to employ recombinant cells expressing these sodium channels. Cloning and propagation of recombinant cells are known to those skilled in the art (see, for example, Klugbauer, N, et al., EMBO J. (1995), 14(6):1084-90; and Lossin, C., et al., Neuron (2002), 34, pp. 877-884).
Cells expressing the channel of interest are grown according to the supplier or in the case of a recombinant cell in the presence of selective growth media such as G418 (Gibco/Invitrogen). The cells are disassociated from the culture dishes with an enzymatic solution (Ix) Trypsin/EDTA (Gibco/Invitrogen) and analyzed for density and viability using haemocytometer (Neubauer). Disassociated cells are washed and resuspended in their culture media then plated into Scintiplates (Beckman Coulter Inc.) (approximately 100,000 cells/well) and incubated at 37° C./5% CO2 for 20-24 hours. After an extensive wash with Low sodium HEPES-buffered saline solution (LNHBSS) (150 mM Choline Chloride, […] (Sigma), 1 mM Calcium Chloride, 5 mM Potassium Chloride, 1 mM Magnesium Chloride, 10 mM Glucose) agents diluted with LNHBSS are added to each well. (Varying concentrations of test agent may be used). The activation/radiolabel mixture contains aconitine (Sigma) to increase the percentage of time that the sodium channels are open, and ^14C-guanidine hydrochloride (ARC) to measure flux through the voltage-gated sodium channels.
After loading the cells with test agent and activation/radiolabel mixture, the Scintiplates are incubated at ambient temperature. Following the incubation, the Scintplates are extensively washed with LNHBSS supplemented with guanidine (Sigma). The Scintiplates are dried and then counted using a Wallac MicroBeta TriLux (Perkin-Elmer Life Sciences). The ability of the test agent to block sodium channel activity is determined by comparing the amount of ^14C-guanidine present inside the cells expressing the different sodium channels.
The IC50 value of a test agent for a specific sodium channel may be determined using the above general method. […] Typically the mid-point concentration of test agent is set at 1 μM, and sequential concentrations of half dilutions greater or smaller are applied (e.g. 0.5 μM; 5 μM and 0.25 μM; 10 μM and 0.125 μM; 20 μM etc.). The IC50 curve is calculated using the 4 Parameter Logistic Model or Sigmoidal Dose-Response Model formula (fit=(A+((B−A)/(1+((C/x)^D)))).
The fold selectivity, factor of selectivity or multiple of selectivity, is calculated by dividing the IC50 value of the test sodium channel by the reference sodium channel, for example, Nav1.5. […]

A value given as a limit tells only on which side of the number the result lay.

Chain of CYP3A4 (P08684 whole entry): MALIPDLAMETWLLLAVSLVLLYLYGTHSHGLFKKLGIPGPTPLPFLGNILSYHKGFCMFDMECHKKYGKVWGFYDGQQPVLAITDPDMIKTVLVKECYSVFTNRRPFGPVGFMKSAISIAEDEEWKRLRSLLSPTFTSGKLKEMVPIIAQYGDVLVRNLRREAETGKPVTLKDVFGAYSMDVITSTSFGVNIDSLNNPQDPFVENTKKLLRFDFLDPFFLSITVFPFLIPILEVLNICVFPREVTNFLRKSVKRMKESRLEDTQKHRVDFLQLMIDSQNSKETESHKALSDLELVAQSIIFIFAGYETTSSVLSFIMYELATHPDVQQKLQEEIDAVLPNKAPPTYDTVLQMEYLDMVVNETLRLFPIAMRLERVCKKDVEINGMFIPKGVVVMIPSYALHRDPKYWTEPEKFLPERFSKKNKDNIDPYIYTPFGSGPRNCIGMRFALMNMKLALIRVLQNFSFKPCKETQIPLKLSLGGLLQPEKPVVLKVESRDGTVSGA

Consider `CC(C)NC(=O)N1CCC(CN2C(=O)C3(COc4cc5c(cc43)CCO5)c3ccccc32)C1` (stereo not shown) [11.62, N-(1-methylethyl)-3-[(2′-oxo-5,6-dihydrospiro[benzo[1,2-b:5,4-b′]difuran-3,3′-indol]-1′(2′H)-yl)methyl]pyrrolidine-1-carboxamide], for which, at CYP3A4, the inhibition at 10 µM is over 50%.

In the case of `O=C1N(Cc2cc(Br)cs2)c2ccccc2C12COc1cc3c(cc12)OCO3` (stereo not shown) [Example 1.7, 1′-[(4-bromo-2-thienyl)methyl]spiro[furo[2,3-f][1,3]benzodioxole-7,3′-indol]-2′(1′H)-one], the IC50 in the data set with sodium channel lay within 1 to 100 nM. At CYP3A4, the inhibition at 10 µM is over 50%.

Regarding `COc1cncc(N2C(=O)C3(COc4cc5c(cc43)OCO5)c3ccccc32)c1` (stereo not shown) [Example 1.17, 1′-(5-methoxypyridin-3-yl)spiro[furo[2,3-f][1,3]benzodioxole-7,3′-indol]-2′(1′H)-one], the IC50 in the data set with sodium channel was 100 to 1000 nM. The inhibition at 10 µM at CYP3A4 is over 50%.

For the compound `O=C1N(Cc2ccc(C(F)(F)F)o2)c2ccccc2C12COc1cc(Br)ccc12` (stereo not shown) [Example 2.22, 6-bromo-1′-((5-(trifluoromethyl)furan-2-yl)methyl)-2H-spiro[benzofuran-3,3′-indolin]-2′-one], the IC50 in the data set on sodium channel lay in the range of 1000 to 10000 nM. The inhibition at 10 µM on CYP3A4 is over 50%.

`O=C1N(Cc2ccc(C(F)(F)F)o2)c2ccccc2C12COc1ccc(Br)cc12` (stereo not shown) [Example 2.23, 5-bromo-1′-((5-(trifluoromethyl)furan-2-yl)methyl)-2H-spiro[benzofuran-3,3′-indolin]-2′-one]: the IC50 with sodium channel is 100 to 1000 nM. The inhibition at 10 µM on CYP3A4 is over 50%.

With `O=C1N(C[C@H]2CCCO2)c2ccccc2C12COc1cc3c(cc12)COCO3` (stereo partly drawn) [Example 2.31, 1′-[(2R)-tetrahydrofuran-2-ylmethyl]-4H-spiro[furo[3,2-g][1,3]benzodioxine-6,3′-indol]-2′(1′H)-one], the IC50 in the data set with sodium channel lay within 1000 to 10000 nM. Further, the inhibition at 10 µM on CYP3A4 is over 50%.

Regarding `COc1ccc(CN2C(=O)C3(COc4cc5c(cc43)OCCO5)c3c2ccc2ncsc32)cc1` (stereo not shown) [Example 2.66, 6′-(4-methoxybenzyl)-2,3-dihydrospiro[furo[2,3-g][1,4]benzodioxine-8,8′-[1,3]thiazolo[5,4-e]indol]-7′(6′H)-one], the concentration for half-maximal inhibition (IC50) in the data set on sodium channel fell in the range of 100 to 1000 nM. In addition, on CYP3A4, the inhibition at 10 µM is over 50%.

Regarding `O=C1Nc2ccccc2C12COc1cc(Br)ccc12` (stereo not shown) [Example 3.2, 6-bromospiro[1-benzofuran-3,3′-indol]-2′(1′H)-one], the concentration for half-maximal inhibition (IC50) in the data set on sodium channel is 1000 to 10000 nM. For the same compound, the inhibition at 10 µM at CYP3A4 was over 50%.

With `O=C1Nc2ccccc2C12COc1ccc(F)cc12` (stereo not shown) [Example 3.8, 5-fluoro-spiro[1-benzofuran-3,3′-indol]-2′(1′H)-one], the IC50 in the data set on sodium channel is 1000 to 10000 nM. Also, the inhibition at 10 µM on CYP3A4 was over 50%.

Regarding `O=C1Nc2ccccc2C12CCOc1cc3c(cc12)CCO3` (stereo not shown) [Example 3.24, 2,3,6,7-tetrahydrospiro[furo[3,2-g]chromene-5,3′-indol]-2′(1′H)-one], in the data set with sodium channel, the half-inhibitory concentration (IC50) is 1000 to 10000 nM. Moreover, the inhibition at 10 µM at CYP3A4 is under 50%.

Take `O=C1Nc2cccc(Br)c2C12COc1cc3c(cc12)OCCO3` (stereo not shown) [Example 3.32, 4′-bromo-2,3-dihydrospiro[furo[2,3-g][1,4]benzodioxine-8,3′-indol]-2′(1′H)-one]: the IC50 in the data set with sodium channel is 100 to 1000 nM. The inhibition at 10 µM on CYP3A4 is under 50%.

Turning to `O=C1Nc2ccccc2C12COc1cc3c(cc12)S(=O)(=O)C=C3` (stereo not shown) [Example 3.40, spiro[indole-3,3′-thieno[2,3-f][1]benzofuran]-2(1′H)-one 5,5′-dioxide], in the data set with sodium channel, the IC50 is 1000 to 10000 nM. The inhibition at 10 µM at CYP3A4 was under 50%.

Take `COCCOc1ccc2c(c1)C1(CO2)C(=O)Nc2ccccc21` (stereo not shown) [Example 3.47, 5-(2-methoxyethoxy)spiro[1-benzofuran-3,3′-indol]-2′(1′H)-one]: in the data set on sodium channel, the IC50 lay within 1000 to 10000 nM. Moreover, the inhibition at 10 µM at CYP3A4 was under 50%.

For `O=C1Nc2ccc3ncsc3c2C12COc1cc3c(cc12)OCCO3` (stereo not shown) [Example 3.49, 2,3-dihydrospiro[furo[2,3-g][1,4]benzodioxine-8,8′-[1,3]thiazolo[5,4-e]indol]-7′(6′H)-one], in the data set on sodium channel, the IC50 lay in the range of 1000 to 10000 nM. Further, the inhibition at 10 µM on CYP3A4 is over 50%.

On to `COc1cc2c(c(OC)c1)C1(COc3cc4c(cc31)OCCO4)C(=O)N2` (stereo not shown) [Example 3.50, 4′,6′-dimethoxy-2,3-dihydrospiro[furo[2,3-g][1,4]benzodioxine-8,3′-indol]-2′(1′H)-one], for which, in the data set with sodium channel, the 50% inhibitory concentration (IC50) lay within 1000 to 10000 nM. In addition, at CYP3A4, the inhibition at 10 µM is under 50%.

For the compound `CCCCCCN1C(=O)C2(COc3cc4c(cc32)OCCO4)c2ccccc21` (stereo not shown) [Example 7.5, 1′-hexyl-2,3-dihydrospiro[furo[2,3-g][1,4]benzodioxine-8,3′-indol]-2′(1′H)-one], the inhibition at 10 µM on CYP3A4 is over 50%.

Regarding `O=C1N(CCC2CC2)c2ccccc2C12COc1cc3c(cc12)OCCO3` (stereo not shown) [Example 7.6], on CYP3A4, the inhibition at 10 µM is under 50%.

As to `CCOCCN1C(=O)C2(COc3cc4c(cc32)OCCO4)c2ccccc21` (stereo not shown) [Example 7.7], the inhibition at 10 µM on CYP3A4 was under 50%.

For `COCCCN1C(=O)C2(COc3cc4c(cc32)OCCO4)c2ccccc21` (stereo not shown) [Example 7.9], the inhibition at 10 µM on CYP3A4 is under 50%.

Turning to `O=C1N(C[C@H]2CCCO2)c2ccccc2[C@]12COc1cc3c(cc12)CCO3` [Example 11.62, (3S)-1′-[(2R)-tetrahydrofuran-2-ylmethyl]-5,6-dihydrospiro[benzo[1,2-b:5,4-b′]difuran-3,3′-indol]-2′(1′H)-one], the inhibition at 10 µM at CYP3A4 is under 50%.

For the compound `CN(C)C(=O)c1cccc2c1C1(COc3cc4c(cc31)OCCO4)C(=O)N2C` (stereo not shown) [Example 16.78, N,N,1′-trimethyl-2′-oxo-1′,2,2′,3-tetrahydrospiro[furo[2,3-g][1,4]benzodioxine-8,3′-indole]-4′-carboxamide], the inhibition at 10 µM at CYP3A4 was under 50%.

`CN1C(=O)C2(COc3cc4c(cc32)OCCO4)c2c(Oc3cccc(N4CCOCC4)c3)cccc21` (stereo not shown) [Example 16.81, 1′-methyl-4′-(3-morpholin-4-ylphenoxy)-2,3-dihydrospiro[furo[2,3-g][1,4]benzodioxine-8,3′-indol]-2′(1′H)-one]: the inhibition at 10 µM at CYP3A4 was over 50%.

For the compound `COc1ccc(Oc2cccc3c2C2(COc4cc5c(cc42)OCCO5)C(=O)N3C)cn1` (stereo not shown) [Example 16.82, 4′-[(6-methoxypyridin-3-yl)oxy]-1′-methyl-2,3-dihydrospiro[furo[2,3-g][1,4]benzodioxine-8,3′-indol]-2′(1′H)-one], the inhibition at 10 µM at CYP3A4 was under 50%.

Take `CN1C(=O)C2(COc3cc4c(cc32)OCCO4)c2c(Oc3ccc4c(c3)OCO4)cccc21` (stereo not shown) [Example 16.83, 4′-(1,3-benzodioxol-5-yloxy)-1′-methyl-2,3-dihydrospiro[furo[2,3-g][1,4]benzodioxine-8,3′-indol]-2′(1′H)-one]: the inhibition at 10 µM on CYP3A4 is over 50%.

Turning to `CN1C(=O)C2(COc3cc4c(cc32)OCCO4)c2c(OCc3ccc(F)cc3)cccc21` (stereo not shown) [Example 16.86, 1′-methyl-4-(4-fluorobenzyloxy)-2,3-dihydrospiro[furo[2,3-g][1,4]benzodioxine-8,3′-indol]-2′(1′H)-one], the inhibition at 10 µM at CYP3A4 was over 50%.

Turning to `CC(=O)c1cccc2c1C1(COc3cc4c(cc31)OCCO4)C(=O)N2C` (stereo not shown) [Example 24, 4′-acetyl-t-methyl-2,3-dihydrospiro[furo[2,3-g][1,4]benzodioxine-8,3′-indol]-2′(1′H)-one], the “% Inhibition of CYP3A4” value on CYP3A4 (at 10 μM) is “A (percent inhibition of less than 50% at 10 μM)”.
